The values that follow are results of earlier work, collected in patent publication US5919783A, “Indoline and azaindoline derivatives as 5-HT1D alpha receptor agonists” (Merck Sharp & Dohme Ltd., priority 1994, dated 1999).

In series [1] the test system is human 5-HT1Dα and 5-HT1Dβ receptor subtypes. The note with it: cf. WO-A-91/17174, Table 1.
The conditions of series [2]: therapeutic doses.

In the case of `CNS(=O)(=O)Cc1ccc2[nH]cc(CCN(C)C)c2c1` [sumatriptan], the “discrimination between human 5-HT1Dα and 5-HT1Dβ receptor subtypes (in words)” value in series [1] was “barely discriminates”. Moreover, the “adverse events in humans” value in series [2] was “adverse cardiovascular events”.
